Three molecules from patent publication US20260224550A1, “PDE4 DEGRADERS, PHARMACEUTICAL COMPOSITIONS, AND THERAPEUTIC APPLICATIONS” (BioTheryX, Inc., priority 2023, published 2026) can be followed below.

The test system of one assay is TNFα. The assay can be described thus: Cell-based cytokine inhibition assay (PBMCs, anti-CD3/anti-CD28 stimulated, MSD kit): TNFα. As to conditions: PBMC, anti-CD3/anti-CD28 stimulation, 23 h with compound, relative to DMSO control. As to the method: (§1) Frozen primary blood mononuclear cells (PBMCs) were thawed and washed once with RPMI 1640 media supplemented with 10% fetal bovine serum, 1% penicillin, and 1% streptomycin. An anti-CD28 antibody at […] was added to the media as a co-stimulant. PBMCs were plated at 1×10^6 cells per well in a 96-well U bottom plate, which was pre-coated overnight with an anti-CD3 antibody at 1 μg/mL in PBS (100 μL/well). After the place was incubated for 1 h at 37° C. in a CO2 incubator, DMSO (control) or a compound was added. After the place was incubated for 23 h at 37° C. in a CO2 incubator, the cells were spun down at 1,500 rpm for 5 min. Supernatant media was collected for cytokine analysis using an MSD kit. Inhibitory activities of the compound were determined as a percentage of the DMSO control.

For another assay, the system named is IFNγ. The assay can be described thus: Cell-based cytokine inhibition assay (PBMCs, anti-CD3/anti-CD28 stimulated, MSD kit): IFNγ. As to conditions: PBMC, anti-CD3/anti-CD28 stimulation, 23 h with compound, relative to DMSO control. On the procedure:
as §1

The next assay has as its system IL-2. In words: Cell-based cytokine inhibition assay (PBMCs, anti-CD3/anti-CD28 stimulated, MSD kit): IL-2. As to conditions: PBMC, anti-CD3/anti-CD28 stimulation, 23 h with compound, relative to DMSO control. As to the method:
as §1

A further assay deals with IL-10. The assay can be described thus: Cell-based cytokine inhibition assay (PBMCs, anti-CD3/anti-CD28 stimulated, MSD kit): IL-10. Conditions: PBMC, anti-CD3/anti-CD28 stimulation, 23 h with compound, relative to DMSO control. As to the method: as §1
Assay [1] has as its system PDE4D, in particular, PDE4D short isoform. In words: Protein degradation assay in A549 cells (western blot): PDE4D. In kind it is cell-based. Conditions: 24 h, same conditions. On the procedure:
A549 cells were grown in RPMI 1640 media supplemented with 10% fetal bovine serum, streptomycin, and penicillin. The cells were plated in 6-well plates at 300,000 cells/well in the growth media. After overnight incubation, the cells were treated with DMSO (control) or a compound at predetermined concentrations (e.g., 10 nM, 100 nM, 1 μM, 3 μM, or 10 μM) for 24 h at 37° C. under 5% CO2. Whole cell extracts were prepared using an immunoprecipitation (IP) lysis buffer. The cells were washed once in PBS, and the cell pellets were resuspended in the IP lysis buffer and incubated for 15 min on ice. Cells debris was removed by centrifugation and the cleared whole cell lysates were transferred to new tubes for further analysis.
For a western blot analysis, the whole cell protein extracts were separated on 4-12% SDS-polyacrylamide gels, transferred to nitrocellulose, and probed with primary antibodies. Membranes were subsequently washed and probed with IRDYE® secondary antibodies. The signals were detected using an ODYSSEY® Imaging System. The antibodies used in the assay included anti-PDE4B antibody; anti-PDE4D antibodies (top, bottom, and short isoform); β-actin mouse monoclonal antibody; IRDYE® 680RD goat anti-rabbit antibody; and IRDYE® 800CW goat anti-mouse antibody.
(Immunoblotting shows a protein as a band on a membrane.)

Structures are written as SMILES.

A word on the IC50: it is the concentration that gives 50% inhibition. With `CCOc1cc([C@@H](CS(C)(=O)=O)N2C(=O)c3ccc(N4CCN(CC5CCN(Cc6ccc(Oc7ccc8c(C9CCC(=O)NC9=O)nn(C)c8c7)cc6)CC5)CC4)cc3C2=O)ccc1OC` (stereo partly drawn) [Compound B002, 5-(4-((1-(4-((3-(2,6-dioxopiperidin-3-yl)-1-methyl-1H-indazol-6-yl)oxy)benzyl)-piperidin-4-yl)methyl)piperazin-1-yl)-2-((S)-1-(3-ethoxy-4-methoxyphenyl)-2-(methylsulfonyl)-ethyl)isoindoline-1,3-dione], the half-maximal inhibitory concentration (IC50) in the assay with TNFα is 0.09 nM; with IFNγ it was 0.3 nM; with IL-2, 0.09 nM; in the assay on IL-10, 0.2 nM.

Consider `CCOc1cc([C@@H](CS(C)(=O)=O)N2C(=O)c3ccc(N4CCC(C5CCN(Cc6ccc(Oc7ccc8c(C9CCC(=O)NC9=O)nn(C)c8c7)cc6)CC5)CC4)cc3C2=O)ccc1OC` (stereo partly drawn) [Compound B001, 5-(1′-(4-((3-(2,6-dioxopiperidin-3-yl)-1-methyl-1H-indazol-6-yl)oxy)benzyl)-[4,4′-bipiperidin]-1-yl)-2-((S)-1-(3-ethoxy-4-methoxyphenyl)-2-(methylsulfonyl)ethyl)-isoindoline-1,3-dione], for which the IC50 in the assay on TNFα turned out to be 0.3 nM; with IFNγ, 0.9 nM; in the assay on IL-2, 0.2 nM; in the assay on IL-10, 0.3 nM.

On to `CCOc1cc([C@@H](CS(C)(=O)=O)N2C(=O)c3cccc(NC(C)=O)c3C2=O)ccc1OC` [apremilast], for which the “degradation of PDE4D (result in words)” value in assay [1] is listed as “did not degrade”.
